Data as given in PMC9963398, “Discovery of New Quinolone-Based Diarylamides as Potent B-RAF^V600E/C-RAF Kinase Inhibitors Endowed with Promising In Vitro Anticancer Activity” (International Journal of Molecular Sciences, 2023).

How the values were obtained:
Assay type in all cases: cell-based
SNB-19 = experiment: NCI-60 five-dose SRB assay; conditions: Homo sapiens; SNB-19, CNS cancer, five-dose test
Experimental: (§1) The anticancer screening of target compounds over a full panel of 60 human cancer cell lines was carried out using Sulforhodamine B (SRB) assay at the National Cancer Institute (NCI), Bethesda, Maryland, USA, employing the standard protocol.

NCI-H322M = experiment: NCI-60 five-dose SRB assay; conditions: Homo sapiens, NSCL cancer, five-dose test
Experimental: as §1

BT-549 = experiment: NCI-60 five-dose SRB assay; conditions: Homo sapiens; BT-549, Breast cancer, five-dose test
Experimental: as §1

HOP-62 = experiment: NCI-60 five-dose SRB assay; conditions: Homo sapiens; HOP-62, NSCL cancer, five-dose test
Experimental: as §1

HCT-15 = experiment: NCI-60 five-dose SRB assay; conditions: Homo sapiens; HCT-15, Colon cancer, five-dose test
Experimental: as §1

A549/ATCC = experiment: NCI-60 five-dose SRB assay; conditions: Homo sapiens, NSCL cancer, five-dose test
Experimental: as §1

786-0 = experiment: NCI-60 five-dose SRB assay; conditions: Homo sapiens; 786-0, Renal cancer, five-dose test
Experimental: as §1

LOX IMVI = experiment: NCI-60 five-dose SRB assay; conditions: Homo sapiens, Melanoma, five-dose test
Experimental: as §1

EKVX = experiment: NCI-60 five-dose SRB assay; conditions: Homo sapiens, NSCL cancer, five-dose test
Experimental: as §1

SF-268 = experiment: NCI-60 five-dose SRB assay; conditions: Homo sapiens; SF-268, CNS cancer, five-dose test
Experimental: as §1

KM12 = experiment: NCI-60 five-dose SRB assay; conditions: Homo sapiens; KM12, Colon cancer, five-dose test
Experimental: as §1

SNB-75 = experiment: NCI-60 five-dose SRB assay; conditions: Homo sapiens; SNB-75, CNS cancer, five-dose test
Experimental: as §1

UACC-257 = experiment: NCI-60 five-dose SRB assay; conditions: Homo sapiens; UACC-257, Melanoma, five-dose test
Experimental: as §1

K-562 = experiment: NCI-60 five-dose SRB assay; conditions: Homo sapiens, K562; K-562, Leukemia, five-dose test
Experimental: as §1

RPMI-8226 = experiment: NCI-60 five-dose SRB assay; conditions: Homo sapiens; RPMI-8226, Leukemia, five-dose test
Experimental: as §1

SK-MEL-28 = experiment: NCI-60 five-dose SRB assay; conditions: Homo sapiens; SK-MEL-28, Melanoma, five-dose test
Experimental: as §1

SW-620 = experiment: NCI-60 five-dose SRB assay; conditions: Homo sapiens; SW-620, Colon cancer, five-dose test
Experimental: as §1

MALME-3M = experiment: NCI-60 five-dose SRB assay; conditions: Homo sapiens, Melanoma, five-dose test
Experimental: as §1

NCI/ADR-RES = experiment: NCI-60 five-dose SRB assay; conditions: Homo sapiens, Ovarian cancer, five-dose test
Experimental: as §1

RXF 393 = experiment: NCI-60 five-dose SRB assay; conditions: Homo sapiens; RXF 393, Renal cancer, five-dose test
Experimental: as §1

M14 = experiment: NCI-60 five-dose SRB assay; conditions: Homo sapiens; M14, Melanoma, five-dose test
Experimental: as §1

[1] = test system: NCI-60 human tumor cell lines; experiment: NCI-60 five-dose testing, ranges over panel or subpanel; conditions: Homo sapiens, range over lines
Experimental: as §1

Row | SMILES | GI50 (SNB-19) [nM] | GI50 (NCI-H322M) [nM] | GI50 (BT-549) [nM] | GI50 (HOP-62) [nM] | GI50 (HCT-15) [nM] | GI50 (A549/ATCC) [nM] | GI50 (786-0) [nM] | GI50 (LOX IMVI) [nM] | GI50 (EKVX) [nM] | GI50 (SF-268) [nM] | GI50 (KM12) [nM] | GI50 (SNB-75) [nM] | GI50 (UACC-257) [nM] | GI50 (K-562) [nM] | GI50 (RPMI-8226) [nM] | GI50 (SK-MEL-28) [nM] | GI50 (SW-620) [nM] | GI50 (MALME-3M) [nM] | GI50 (RXF 393) [nM] | GI50 (M14) [nM] | also measured
1 | COc1cccc2nc(Nc3cccc(NC(=O)c4ccc(CN5CCN(C)CC5)c(C(F)(F)F)c4)c3)ccc12 [Compound 14a, 4-((4-methylpiperazin-1-yl)methyl)-N-(3-((5-methoxyquinolin-2-yl)amino)phenyl)-3-(trifluoromethyl)benzamide] | 1780 | 2290 | 7010 | 1560 | 1780 | 2440 | 1760 | 1740 | 2100 | 1690 | 2130 | 1600 | 1980 | 2700 | 2780 | 1710 | 1730 | 1650 | 1730 | 1760 | GI50 (NCI/ADR-RES): 2280 nM
2 | COc1cccc2nc(Nc3cccc(NC(=O)c4ccc(CN5CCCN(C)CC5)c(C(F)(F)F)c4)c3)ccc12 [Compound 14b, N-(3-((5-methoxyquinolin-2-yl)amino)phenyl)-4-((4-methyl-1,4-diazepan-1-yl)methyl)-3-(trifluoromethyl)benzamide] | 1720 | 2120 | 2060 | 1760 | 1620 | 1900 | 1720 | 1680 | 1720 | 1770 | 2490 | 1520 | 1860 | 1230 | 1930 | 1680 | 1750 | 1720 | 1660 | 1810 | GI50 (NCI/ADR-RES): 1720 nM
3 | CCN1CCN(Cc2ccc(C(=O)Nc3cccc(Nc4ccc5c(OC)cccc5n4)c3)cc2C(F)(F)F)CC1 [Compound 14c, 4-((4-ethylpiperazin-1-yl)methyl)-N-(3-((5-methoxyquinolin-2-yl)amino)phenyl)-3-(trifluoromethyl)benzamide] | 1650 | 3500 | 5350 | 3670 | 1580 | 2500 | 1410 | 1450 | 4060 | 2170 | 2200 | 1200 | 1510 | 2110 | 2240 | 1560 | 1450 | 1440 | 1630 | 1470 | GI50 (NCI/ADR-RES): 2280 nM
4 | COc1cccc2nc(Nc3ccc(F)c(NC(=O)c4ccc(CN5CCN(C)CC5)c(C(F)(F)F)c4)c3)ccc12 [Compound 15a, N-(2-fluoro-5-((5-methoxyquinolin-2-yl)amino)phenyl)-4-((4-methylpiperazin-1-yl)methyl)-3-(trifluoromethyl)benzamide] | 17200 | 15200 | 10500 | 14500 | 13400 | 12200 | 12500 | 13800 | 14700 | 11100 | 15400 | 9090 | 16300 | 3590 | 9300 | 15300 | 16900 | 11700 | 3710 | 13100 | GI50 ([1]; all cancer cell lines): 3610 to 18800 nM; GI50 ([1]; melanoma cell lines): 11700 to 16300 nM
